Entries after “also recorded” stand apart in the source; their conditions may differ. Structures can show the parent of a compound that is named as a salt. Blank lines part the entries; values can stand above or below the compound they belong to.
What was measured:
[1] = system: PMA-induced ear inflammation; test: PMA ear inflammation model, PET/CT imaging; assay type: in vivo, mouse; settings: for detection of PMA-inflamed ear versus vehicle ear by PET: about 1 hr post tracer injection ([^18F]FDG from 45 min)
Protocol: 3 Months old Balb/c female mice or 20-26 week-old female C57B16 mice (Taconic) were topically treated with PMA (Sigma) (400 μM) in ethanol on the right ear or vehicle, ethanol, on the left ear. 24 hrs later, inflammation of the right ear was validated by visual inspection for redness and swelling. Mice were then injected IV (unless noted) with [^18F]FN or [^18F]FNS or [^18F]FNG derivatives as noted and PET/CT images were acquired at times indicated, typically 1 hr post injection. Mice, n=3 for [^18F]FN and [^18F]FNS, were euthanized at 1.5 hr post injection for blood metabolism analysis. In one experiment, adult (3 month old Balb/c) were imaged on an in vivo imaging system (IVIS Spectrum, PE; 5 min, binning 16, 25 cm FOV) 10 min post injection of Luminol (200 mg/kg) IP to confirm production of reactive oxygen species. For [^18F]FDG PET imaging experiments, mice were fasted for >4 hr prior to FDG injection. Mice were injected with [^18F]FDG IV under light anesthesia and then allowed to awake, move and drink water at libitum. Cages were kept on a cage warmer during uptake and washout periods. Mice were imaged starting at 45 min post-injection with a 10 min PET/CT scan (Albira, Bruker). In all cases, PET images were acquired for 10 min using a 15 cm FOV; CT images were acquired for fusion using a 7 cm FOV also centered on the object of interest. Image data were decay corrected to injection time (Albira, Bruker) and expressed as % ID/cc or SUV as indicated (PMOD, PMOD Technologies). Actual injected dose was calculated based on measuring the pre- and post-injection activity in the syringe with a dose calibrator on a per mouse basis (Capintec), and mice were individually weighed to calculate individual standardized uptake values. In the context of an acute inflammation model, [^18F]4FN was tested in a pilot experiment in Balb/c mice topically treated with PMA on the right ear or vehicle on the left ear. The treated ear turned red, visually confirming the inflammation site. Mice were injected IP with [^18F]4FN and PET/CT scans were taken at 11 min, 1 h, 2 h and 3 h post injection of tracer (FIG. 5). […] After 1 h, the inflamed ear was clearly visualized (>2% ID/cc). […] Production of reactive oxygen species in the inflamed ear was confirmed by BLI with luminol after PET imaging (FIG. 5) (Gross et al., 2009). This indicated the dependence of the signal on induced inflammation.

[2] = Shelf-stability of the formulated radiotracer in PBS (10% EtOH); assay type: physicochemical
Protocol: (§1) [^18F]4FN was synthesized on the automated module GE TracerLab-FX from precursor 1 in 6.8±2.5% (n=22) activity yield, by means of a copper-mediated radiofluorination of the corresponding Boc-protected pinacol boronic ester, followed by deprotection, purification and reformulation (Scheme 2; Tredwell et al., 2014). [^18F]4FN was obtained in >99% radiochemical purity, 50-140 GBq/μmol and up to 4 h shelf-stability in PBS (10% EtOH). [^18F]4FN was also stable in mouse plasma for at least 1 h.

[3] = Stability in mouse plasma; assay type: in vitro ADME
Protocol: as §1

[4] = system: Nox2; test: PMA ear inflammation model in Nox2 KO mice, PET/CT imaging; assay type: in vivo, mouse; settings: Nox2 KO mice (gp91phox-/-), IP, one-hour post administration
Protocol: Balb/c mice were treated with either PMA or vehicle and imaged 24 hr post treatment by PET/CT scan at 1 hr post-injection (IP) of [^18F]4FN (FIG. 1A); photograph 3 hr post [^18F]4FN (FIG. 1i). BLI 10 min post luminol injection (FIG. 1C). Aged-matched, 15-week-old female wild-type […] or Nox2 KO mice (n=3 each) were treated with PMA or vehicle and imaged with [^18F]4FN one-hour post IP administration of radiotracer. PET/CT data were quantified using ROIs surrounding the right and left ears. Contrast-to-noise ratios were calculated for all mice and data were plotted as mean and SEM. […] Radioactive HPLC trace and chemical structure of [^18F]4FN (FIG. 1E).
3 Months old Balb/c female mice or 20-26 week-old female C57B16 mice (Taconic) were topically treated with PMA (Sigma) (400 μM) in ethanol on the right ear or vehicle, ethanol, on the left ear. 24 hrs later, inflammation of the right ear was validated by visual inspection for redness and swelling. Mice were then injected IV (unless noted) with [^18F]FN or [^18F]FNS or [^18F]FNG derivatives as noted and PET/CT images were acquired at times indicated, typically 1 hr post injection. Mice, n=3 for [^18F]FN and [^18F]FNS, were euthanized at 1.5 hr post injection for blood metabolism analysis. […]

[5] = In vivo mouse blood and urine metabolism by radio-HPLC
Protocol: 3 Months old Balb/c female mice or 20-26 week-old female C57B16 mice (Taconic) were topically treated with PMA (Sigma) (400 μM) in ethanol on the right ear or vehicle, ethanol, on the left ear. 24 hrs later, inflammation of the right ear was validated by visual inspection for redness and swelling. Mice were then injected IV (unless noted) with [^18F]FN or [^18F]FNS or [^18F]FNG derivatives as noted and PET/CT images were acquired at times indicated, typically 1 hr post injection. Mice, n=3 for [^18F]FN and [^18F]FNS, were euthanized at 1.5 hr post injection for blood metabolism analysis. In one experiment, adult (3 month old Balb/c) were imaged on an in vivo imaging system (IVIS Spectrum, PE; 5 min, binning 16, 25 cm FOV) 10 min post injection of Luminol (200 mg/kg) IP to confirm production of reactive oxygen species. For [^18F]FDG PET imaging experiments, mice were fasted for >4 hr prior to FDG injection. Mice were injected with [^18F]FDG IV under light anesthesia and then allowed to awake, move and drink water at libitum. Cages were kept on a cage warmer during uptake and washout periods. Mice were imaged starting at 45 min post-injection with a 10 min PET/CT scan (Albira, Bruker).
In vivo mouse blood metabolism was also performed. Blood was drawn from inflamed, non-inflamed and MPO knock-out mice at 5 min and 1.5 h post injection, processed and analyzed by analytical radio-HPLC. […] While 4-fluoronaphthol metabolism has not been studied, naphthol metabolism is well documented in the literature: the molecule is reported to be quickly transformed into glucuronic and sulfuric esters, and this pathway is conserved from flies to man (Narukawa et al., 2004 and Terriere et al., 1961). […] To test this hypothesis, [^18F]4FN was transformed enzymatically with glucuronosyltransferase and sulfonyl transferase into the corresponding glucuronide and sulfate derivatives (Scheme 3), respectively, and the products analyzed by radio-HPLC.

[6] = system: LPS-induced arthritis; test: LPS-induced model of arthritis, PET imaging and L-012 BLI; assay type: in vivo, mouse
Protocol: Herein, C57BL6/N mice were injected i.a. with LPS, left ankle, or vehicle, right ankle. After 24 hours, mild inflammation of the left ankle was confirmed by visual inspection. 1 hour dynamic PET scans were acquired post i.v. injection of [^18F]4FN. Mice were subsequently imaged for ROS by BLI (L-012). A) 1 hour static [^18F]4FN PET image (left) and BLI (right). B) PET image-derived time-activity curves (TACs) were quantified for the ankles (left, n=4). […] C) H&E staining cross-validated local inflammation (vehicle, left panel; LPS, right panel), utilizing the same mouse as imaged in A. D) Image-based biodistribution was calculated from the dynamic PET/CT data and SUV plotted for various organs over time.
[^18F]4FN PET was employed to image a model of inflammatory arthritis and validate its correlation with L012, a known ROS/RNS bioluminescence sensor.

[7] = system: neutrophil-like human HL-60 cells; test: [^18F]4FN cellular retention in PMA-activated neutrophil-like HL-60 cells; assay type: cell-based
Protocol: HL-60 cells were first differentiated to yield “neutrophil-like” cells. Then, in parallel, cell aliquots from each batch were imaged with L-012 (to confirm ROS production by bioluminescence) and incubated with 6.2 kBq of [^18F]4FN. To induce ROS, all cells were incubated with PMA. […] Data were quantified as a ratio of the cell-associated radioactive counts per milligram protein over concentration of radiotracer in the extracellular space, and then normalized to vehicle.

[8] = system: 4T1 tumor; test: 4T1 tumor PET imaging; assay type: in vivo, mouse; settings: immunocompetent Balb/C mice, 1 h after injection
Protocol: 4T1 murine breast cancer cells were cultured and passaged per ATCC guidelines and utilized prior to 20 passages. 10,000 4T1 cells were injected subcutaneously into the right flank of 6-8 week old Balb/c mice. Tumors grew for 3 weeks prior to imaging. In all cases, PET images were acquired for 10 min using a 15 cm FOV; CT images were acquired for fusion using a 7 cm FOV also centered on the object of interest. Image data were decay corrected to injection time (Albira, Bruker) and expressed as % ID/cc or SUV as indicated (PMOD, PMOD Technologies). Actual injected dose was calculated based on measuring the pre- and post-injection activity in the syringe with a dose calibrator on a per mouse basis (Capintec), and mice were individually weighed to calculate individual standardized uptake values. [^18F]4FNS PET has been employed to visualize 4T1 tumors in immunocompetent Balb/C mice. 4T1 is a reliable murine model for triple negative breast cancer and, in its early proliferative stage, is believed to be heavily infiltrated by immune cells, particularly active neutrophils and myeloid derived suppressor cells (MDSCs; Wang et al., 2017 and Bunt et al., 2006).

Structure (SMILES): OC[C@H]1OC(O)[C@H]([18F])[C@@H](O)[C@@H]1O (some centres unmarked) [[^18F]FDG, reference compound]
detection of PMA-inflamed ear versus vehicle ear by PET ([1]; IV injection): no differentiation between the ears; also recorded: no FDG image asymmetry was observed

Structure (SMILES): O=C([O-])CC(O)(CC(=O)[O-])C(=O)[O-].[68Ga+3] [^68Ga-citrate, reference compound]
difference between inflamed and vehicle ears (perfusion control) ([1]; same animals, same time points): No difference between the ears

Structure (SMILES): c1ccc2c(c1)[I+]c1ccccc1-2 [DPI, reference compound]
blocking of PMA-induced [^18F]4FN retention ([7]; pre-incubation with inhibitor prior to PMA): blocked

Now from value to compound, other results behind:

clearance relative to other tracers ([1]; PMA model): cleared much faster
Structure (SMILES): O=C(O)C1OC(Oc2ccc([18F])c3ccccc23)C(O)C(O)C1O (centres unmarked) [[^18F]4FNG, [^18F]4-fluoronaphthalen-1-yl glucuronide]
detection of PMA-inflamed ear versus vehicle ear by PET ([1]; IV injection): small differentiation
retention in PMA-inflamed ear relative to other tracers ([1]; PMA model, 1 h post injection): retained much less than [^18F]FN and [^18F]FNS

shelf-stability [2]: up to 4 h
stable in mouse plasma [3]: at least 1 h
clearance of the tracer ([1]; Balb/c mice, IP injection): renal dominant
hepatobiliary excretion ([1]; Balb/c mice, IP injection): partial hepatobiliary excretion
radioactivity in the liver ([1]; Balb/c mice, IP injection): low
blood metabolites ([5]; 5 min after injection): Metabolites are also present
blood metabolites ([5]; inflamed mice, 1.5 h post injection): more polar metabolites were observed
blood radio-HPLC, parent compound ([5]; non-inflamed and MPO knock-out mice, 1.5 h post injection): the parent compound could still be seen
Structure (SMILES): Oc1ccc([18F])c2ccccc12 [[^18F]4FN, 4-[^18F]fluoro-1-naphthol]
crossing of blood-brain barrier (radioactivity in the intracranial region) ([1]; Balb/c mice, IP injection): may not cross an intact blood-brain barrier
differentiation in uptake between inflamed right ear and vehicle treated left ear ([1]; Balb/c mice, IP injection, 11 min post-injection): no differentiation in uptake
uptake in inflamed ear ([1]; Balb/c mice, IP injection, 1 h post injection): > 2 % ID/cc
uptake-ratio between right-inflamed ear and left-control ear ([1]; IP injection, 11 min to 3 h post injection): increased over time
Cohen's d effect size, inflamed versus non-inflamed sites ([1]; IP or IV delivery, n=5): large Cohen's d effect sizes
contrast ratios inflamed versus non-inflamed ([1]; IP or IV delivery, n=5): strong contrast ratios
difference in SUV between inflamed and vehicle-treated ears ([1]; IP or IV delivery, n=5): statistically detectable differences in SUV; also recorded: statistically detectable differences in SUVaverage values
detection of PMA-inflamed ear versus vehicle ear by PET ([1]; IV injection): clearly visible
detection of PMA-inflamed ear versus vehicle ear by PET ([1]; IV injection, listed as [^18F]FN): readily detectable
difference between inflamed and non-inflamed ear in Nox2 KO mice versus WT [4]: substantially smaller compared to WT inflamed mice; also recorded: decreased contrast between PMA-treated and untreated ears
correlation of PET accumulation in inflamed ankles with L012 bioluminescence ([6]; 1 hr, per animal basis): correlated strongly with L012; also recorded: directly correlated
imaging of inflammatory ROS burst by PET ([6]; C57BL6/N mice, LPS i.a. left ankle, i.v. tracer): readily image the inflammatory ROS burst
[^18F]4FN retention in activated cells vs vehicle (ratio) ([7]; PMA-activated differentiated HL-60 cells, normalized to vehicle): > 1

clearance ([1]; IV injection, n=3): Rapid primarily renal clearance
defluorination (bone) ([1]; IV injection, n=3): minor defluorination
hepatobiliary excretion ([1]; IV injection, n=3): minor hepatobiliary excretion
Structure (SMILES): O=S(=O)(O)Oc1ccc([18F])c2ccccc12 [[^18F]4FNS, [^18F]4-fluoronaphthalen-1-yl sulfate]
detection of PMA-inflamed ear versus vehicle ear by PET ([1]; IV injection): readily detected; also recorded: clearly visible; also recorded: readily detectable
visualization of 4T1 tumor by PET [8]: clearly visible; also recorded: easily distinguishable

From patent publication US20220218851A1, “COMPOUNDS AND METHODS FOR IMAGING IMMUNE ACTIVITY” (Board of Regents, The University of Texas System, priority 2019, published 2022)
